From patent US20250049800A1, “VCP/p97 INHIBITOR FOR THE TREATMENT OF CANCER” (CASI Pharmaceuticals, Inc., priority 2021, published 2025)
Read-outs that look alike come from different tables or passages of the source.

Legend:
[1] = Phase I study: safety, adverse events and visual symptoms; assay type: in vivo, human
Description: Similar dosing may be used in the dose expansion part of the study. BID dosing may be also tested depending on initial PK assessments. Participants were evaluated regularly for safety assessments including physical examinations and laboratory testing. Bone marrow aspirates and/or biopsies are performed at regular intervals, including for assessment of tumor response as per 2017 European LeukemiaNet (ELN) response criteria for AML or 2006 revised International Working Group (IWG) response criteria for MDS. Peripheral blood samples are collected in Cycle 1 for intensive PK testing and PD biomarker assessments. Additional intensive PK testing is collected for any participants undergoing intra-patient dose escalation.

HL-60 cell line = assay: Cell Titer-Glo viability, fixed agent + dose response agent combinations; assay type: cell-based, human; settings: for Combination:Monotherapy IC50 Ratio: HL-60; for IC50: Homo sapiens, HL-60, HL-60, read-out: IC50
Description: (§1) The additional therapeutic agents for this example were azacitidine (Cayman Chemical Cat No. 11164), decitabine (Sigma Cat No. A3656) and venetoclax (InvivoChem Cat. No. V0001).
(§2) Cell Culture: Three human acute myeloid leukemia tumor cell lines were used in this study: HL60, MV4;11 and MOLM-13. HL60 and MV4;11 were grown in IMDM base media with 20% and 10% FBS, respectively. MOLM-13 was grown in RPMI 1640 base media with 20% FBS. All culture media contained 2 mM glutamine, 100 units/mL sodium penicillin G, […] gentamicin, and 100 µg/mL streptomycin sulfate. The tumor cells were cultured in tissue culture flasks in a humidified incubator at 37° C., in an atmosphere of 5% CO2 and 95% air. Assay: Tumor cells were seeded in duplicate in a volume of 100 µL/well of media into 96-well micro-culture plates at initial densities low enough to allow for several population doublings (typically three to five) during the indicated incubation period. After a 24 hour incubation, test agents were added to each well. After 72 hours of culture with test articles, cell viability was determined using the Cell Titer-Glo® (Promega G7571) assay. Briefly, Cell Titer-Glo® (Promega G7571) reagents were equilibrated at room temperature for 30 minutes; 100 μL per well was added at endpoint (72 hours). Plates were gently shaken for two minutes and then incubated at room temperature for ten minutes prior to reading luminescence on the BMG Clariostar Plus microplate reader.
(§3) An IC50 ratio for each combination was calculated from the ratio of the combination IC50 as compared to the applicable no fixed agent (vehicle) control.

MOML-13 cell line = assay: as above; assay type: cell-based, human; settings: MOML-13; for IC50: Homo sapiens, read-out: IC50
Description: as §1, §2, §3

MV4; 11 cell line = assay: as above; assay type: cell-based, human; settings: 11; for IC50: Homo sapiens, MV4-11, MV4, read-out: IC50; for Combination:Monotherapy IC50 Ratio: MV4
Description: as §1, §2, §3

[2] = fixed agent Azacitidine - 5750 nM
[3] = fixed agent Azacitidine - 9800 nM
[4] = fixed agent Decitabine - 175 nM
[5] = fixed agent Decitabine - 1700 nM
[6] = fixed agent Venetoclax + Azacitidine - 85 nM
[7] = fixed agent Venetoclax + Azacitidine - 475 nM
[8] = fixed agent Azacitidine - 105 nM
[9] = fixed agent Azacitidine - 850 nM
[10] = fixed agent Decitabine - 2.5 nM
[11] = fixed agent Decitabine - 8.5 nM
[12] = fixed agent Venetoclax + Azacitidine - 6.5 nM
[13] = fixed agent Venetoclax + Azacitidine - 20 nM
[14] = fixed agent Azacitidine - 500 nM
[15] = fixed agent Azacitidine - 3150 nM
[16] = fixed agent Decitabine - 215 nM
[17] = fixed agent Venetoclax + Azacitidine - 50 nM

Compound: Cc1cc2c(C(N)=O)cccc2n1-c1nc2c(c(NCc3ccccc3)n1)CCCN2 [Compound 1, 1-(4-(benzylamino)-5,6,7,8-tetrahydropyrido[2,3-d]pyrimidin-2-yl)-2-methyl-1H-indole-4-carboxamide]
- adverse events ([1]; cohorts dosed 25 mg to 450 mg QD): No adverse events were observed
- visual adverse events at plasma exposure equivalent to CB-5083 ([1]; highest doses): no lasting symptoms
- symptoms of visual impairment ([1]; lower dose cohorts): No symptoms of visual impairment
- visual adverse events at plasma exposure equivalent to CB-5083 ([1]; lower doses): no symptoms of visual impairment or other visual adverse events
- visual symptoms ([1]; two patients in cohort X): low-grade visual symptoms on the day of dosing that did not persist
- Combination:Monotherapy IC50 Ratio (HL-60 cell line; [2]): 1.02
- Combination:Monotherapy IC50 Ratio (HL-60 cell line; [3]): 0.85
- Combination:Monotherapy IC50 Ratio (HL-60 cell line; [4]): 0.96
- Combination:Monotherapy IC50 Ratio (HL-60 cell line; [5]): 1.06
- Combination:Monotherapy IC50 Ratio (HL-60 cell line; [6]): 0.84
- Combination:Monotherapy IC50 Ratio (HL-60 cell line; [7]): 0.84
- IC50 (HL-60 cell line; [2]): 0.311 µM
- IC50 (HL-60 cell line; [3]): 0.258 µM
- IC50 (HL-60 cell line; [4]): 0.294 µM
- IC50 (HL-60 cell line; [5]): 0.323 µM
- IC50 (HL-60 cell line; [6]): 0.256 µM
- IC50 (HL-60 cell line; [7]): 0.256 µM
- IC50 (MOML-13 cell line; [8]): 0.0846 µM
- IC50 (MOML-13 cell line; [9]): 0.0849 µM
- IC50 (MOML-13 cell line; [10]): 0.121 µM
- IC50 (MOML-13 cell line; [11]): 0.065 µM
- IC50 (MOML-13 cell line; [12]): 0.154 µM
- IC50 (MOML-13 cell line; [13]): 0.113 µM
- Combination:Monotherapy IC50 Ratio (MOML-13 cell line; [8]): 0.39
- Combination:Monotherapy IC50 Ratio (MOML-13 cell line; [9]): 0.39
- Combination:Monotherapy IC50 Ratio (MOML-13 cell line; [10]): 0.56
- Combination:Monotherapy IC50 Ratio (MOML-13 cell line; [11]): 0.30
- Combination:Monotherapy IC50 Ratio (MOML-13 cell line; [12]): 0.71
- Combination:Monotherapy IC50 Ratio (MOML-13 cell line; [13]): 0.52
- IC50 (MV4; 11 cell line; [14]): 0.115 µM
- IC50 (MV4; 11 cell line; [15]): 0.118 µM
- IC50 (MV4; 11 cell line; fixed agent Decitabine - 30 nM): 0.117 µM
- IC50 (MV4; 11 cell line; [16]): 0.0915 µM
- IC50 (MV4; 11 cell line; [13]): 0.163 µM
- IC50 (MV4; 11 cell line; [17]): 0.118 µM
- Combination:Monotherapy IC50 Ratio (MV4; 11 cell line; [14]): 0.46
- Combination:Monotherapy IC50 Ratio (MV4; 11 cell line; [15]): 0.47
- Combination:Monotherapy IC50 Ratio (MV4; 11 cell line; fixed agent Decitabine - 30 nM): 0.47
- Combination:Monotherapy IC50 Ratio (MV4; 11 cell line; [16]): 0.36
- Combination:Monotherapy IC50 Ratio (MV4; 11 cell line; [13]): 0.65
- Combination:Monotherapy IC50 Ratio (MV4; 11 cell line; [17]): 0.47
